In patent US9624269B2, “Peptide inhibitors of BACE1” (GENENTECH, INC., priority 2011, dated 2017):
Positions of bridges follow the written chain, without caps; N, C: chain ends. Residues, ends and D or L forms follow the SMILES beside them.

Legend:
[1] = test system: Aβ1-40 production in 293-hAPP cells; assay: Aβ1-40 assay in 293-hAPP cells; assay type: cell-based, human; conditions: 293-HEK cells stably transfected with APP, 24 h
Procedure: Aβ1-40 Assay in 293-hAPP Cells.
Aβ1-40 production was measured in 293-HEK cells stably expressing wild-type human APP(695) complementary DNA (cDNA) (293-hAPP). Cells were seeded overnight at 3×10^4 cells per well in a 96-well plate. Fresh media [Dulbecco's modified Eagle's medium (DMEM)+10% fetal bovine serum (FBS)] containing various inhibitors were incubated with the 293-hAPP cells for 24 h. The cellular medium was harvested and assayed for the presence of Aβ1-40 with an Aβ1-40 HTRF assay (CisBio) according to the manufacturer's instructions. Aβ1-40 values were normalized for cell viability, as determined with the CellTiter-Glo Luminescent Cell Viability Assay (Promega). Experiments were performed at least 3 times, and each point in each experiment was repeated in duplicate. Data was plotted with a 4-parameter nonlinear regression curve-fitting program (KaleidaGraph, Synergy Software).

human BACE1 (rhBACE1) [2] = target: T1, human BACE1 (rhBACE1) (Homo sapiens, UniProt P56817); assay: BACE1 fluorescence polarization (FP) competition binding assay with 5-TAMRA-BACE020 probe; conditions: competition with 3 nM 5-TAMRA-BACE020, 12 nM rhBACE1, pH 4.4
Procedure: BACE1 Fluorescence Polarization Competition Binding Assay.
BACE1 binding assays were carried out in a final volume of 10 μL per well in black 384-well microplates (Proxiplate-Plus; Perkin Elmer, Waltham, Mass.). A standard binding reaction, initiated by the addition of 5 μL 2× enzyme to 2.5 μL of 4× binding probe and […] of 4× inhibitor, contained 12 nM rhBACE1, 3 nM 5-TAMRA-[…] (SEQ ID NO: 16) (5-TAMRA-BACE020), 50 mM NaOAc, pH 4.4 with 0.1% CHAPS. The reaction was permitted to proceed towards equilibrium for 2 h at ambient temperature prior to fluorescence polarization measurement using Envision (Perkin Elmer). The parallel and perpendicular fluorescent emissions measured in each well at 595 nm (excitation 531 nm polarized light) were used to determine the milli-polarization level (mP) using the following formula: mP=1000*(S-G*P)/(S+G*P) where S=parallel emission, P=perpendicular emission and G=0.65. The mP value in each well was plotted as a function of inhibitor concentration and the 50% inhibition (IC50) values were determined using a nonlinear least squares fit of the data to a four parameter equation using Prism 5.0 software (GraphPad Software, San Diego, Calif.). 5-TAMRA-labeled BACE020 was purchased from American Peptide Company, Inc (Sunnyvale, Calif.) and solubilized in DMSO to 100 mM for storage.
The affinities of BACE1 peptide ligands were measured using the abovementioned competition binding FP assay for determining IC50 values with serially diluted peptides. A Caliper assay was used to measure the inhibition of BACE1 enzymatic activity by peptide ligands. […] Furthermore, the IC50 values measured by the Caliper assay for peptides BACE017-021 and BACE025-028 are consistent with those measured by the HTRF assay.
Target sequence in this assay (P56817 46-501): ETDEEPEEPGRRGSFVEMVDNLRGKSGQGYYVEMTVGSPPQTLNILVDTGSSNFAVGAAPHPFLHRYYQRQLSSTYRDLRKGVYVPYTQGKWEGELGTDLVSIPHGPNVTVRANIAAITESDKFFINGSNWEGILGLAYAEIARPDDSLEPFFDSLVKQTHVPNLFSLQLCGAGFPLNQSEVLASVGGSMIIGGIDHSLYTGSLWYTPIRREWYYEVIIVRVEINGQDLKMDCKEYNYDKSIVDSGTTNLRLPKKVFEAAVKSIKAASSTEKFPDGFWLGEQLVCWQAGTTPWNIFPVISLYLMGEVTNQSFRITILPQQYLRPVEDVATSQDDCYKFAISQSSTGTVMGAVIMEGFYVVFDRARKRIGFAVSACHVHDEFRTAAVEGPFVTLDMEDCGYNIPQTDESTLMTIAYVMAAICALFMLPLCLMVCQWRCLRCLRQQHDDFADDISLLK

human BACE1 (rhBACE1) [3] = target: T1, human BACE1 (rhBACE1); assay: BACE1 HTRF activity assay (Bi27 substrate); assay type: biochemical; conditions: for IC50: Bi27 27-mer substrate, pH 4.4
Procedure: Briefly, a homogeneous time-resolved fluorescence (HTRF) assay can be used to measure BACE1 aspartyl protease activity with the use of an amyloid precursor protein BACE1 cleavage site peptide. For example, the Bi27 peptide (Biotin-[…] (SEQ ID NO:5), American Peptide Company)), is combined with BACE1 pre-incubated with an anti-BACE antibody in BACE reaction buffer (50 mM sodium acetate pH 4.4 and 0.1% CHAPS) in a 384-well plate (Proxiplate™, Perkin-Elmer). The proteolytic reaction mixture is incubated at ambient temperature for 75 minutes and is quenched by the addition of 5 μL HTRF detection mixture containing 2 nM Streptavidin-D2 and 150 nM of an anti-amyloid beta antibody labeled with Europium cryptate in detection buffer (200 mM Tris pH 8.0, 20 mM EDTA, 0.1% BSA, and 0.8M KF). The final reaction mixture is incubated at ambient temperature for 60 minutes and the TR-FRET signal is measured using an EnVision Multilabel Plate Reader™ (Perkin-Elmer) at an excitation wavelength of 320 nm and emission wavelengths of 615 and 665 nm.
BACE1 HTRF Activity Assay.
The BACE1 HTRF reaction was initiated by the addition of 2 μl of 600 nM Bi27 (Biotin-[…] (SEQ ID NO: 5), American Peptide Company) to 6 μl of 2.7 nM rhBACE1 pre-incubated with peptides or small molecule inhibitors in BACE1 reaction buffer (50 mM NaOAc pH 4.4 and 0.1% CHAPS) in a 384-well Proxiplate (Perkin Elmer). The 8 μl proteolytic reaction mixture was incubated at ambient temperature for 24 h and was quenched by the addition of 8 μl HTRF detection mixture containing 150 nM Streptavidin-D2 and 5 nM 6E10 labeled with Europium cryptate in detection buffer (200 mM Tris pH 8.0, 20 mM EDTA, 0.1% BSA, and 0.8 M KF). The final reaction mixture was incubated at room temperature for 60 min and the TR-FRET signal was measured on the EnVision Multilabel Plate Reader (Perkin Elmer) (excitation at 320 nm, emission at 615 and 665 nm). The data was analyzed using GraphPad Prism 5 (La Jolla, Calif.).
Target sequence in this assay (P56817 46-501): as above

BACE1 [4] = target: T2, BACE1 (Homo sapiens, UniProt P56817); assay: Phage ELISA of peptide-displaying phage on plate-immobilized BACE1; assay type: binding; conditions: 70 nM BMS1 peptide
Procedure: BMS1, BMS2 and BMS4 are the same as peptide identifiers 1, 2 and 4, respectively as previously described (Kornacker, M. G. et al. (2005) Biochemistry 44: 11567-73). […] FIG. 1C depicts the competition of peptide-displaying phage bound to BACE1 with synthesized peptide BMS1. The bars represent phage ELISA signal in the absence (gray) or presence (black) of 70 nM BMS1 peptide. The phage peptide ID is as denoted in FIG. 1A.
BACE017 is a BACE1 binding peptide ligand obtained from the solution panning of BACE1 against the naïve peptide library in the presence of 100 μM BACE010. BACE018-BACE021 are peptide sequences for BACE1 binding peptides derived from the affinity maturation of BACE017. The phage spot ELISA data is listed to indicate the relative binding affinity for individual clones. The column labeled with ELISA is the phage-binding signal to BACE1, s/n ratio represents the signal/noise ratio, in which “signal” is the data as shown in column “ELISA” and noise is the phage-binding signal to BSA as background nonspecific binding. […]
After 4 rounds of binding selection, individual phage clones were analyzed in a high-throughput spot phage ELISA (Sidhu, S. S. et al. (2000) Methods Enzymol 328: 333-63) using plate-immobilized BACE1 as the target. The binding signal of the same phage particle to BSA was detected as non-specific binding noise. […]
Target sequence in this assay (P56817 46-501): as above

BACE1 [5] = target: T2, BACE1; assay: Biotinylated BACE020 competition binding ELISA; parameters: extracellular domain (ECD) (residues 22-457) and a C-terminal His8 tag; made in house; host or cells: Chinese hamster ovary cells (transient); conditions: concentration dependent addition of competitor
Procedure: The coated wells were washed with buffer (PBS, 0.05% Polysorbate 20) and blocked with assay buffer (PBS, pH 7.4, 0.5% BSA, 0.05% Tween 20, 15 ppm Proclin) for 1 h at room temperature with gentle shaking.
Target sequence in this assay (P56817 22-457): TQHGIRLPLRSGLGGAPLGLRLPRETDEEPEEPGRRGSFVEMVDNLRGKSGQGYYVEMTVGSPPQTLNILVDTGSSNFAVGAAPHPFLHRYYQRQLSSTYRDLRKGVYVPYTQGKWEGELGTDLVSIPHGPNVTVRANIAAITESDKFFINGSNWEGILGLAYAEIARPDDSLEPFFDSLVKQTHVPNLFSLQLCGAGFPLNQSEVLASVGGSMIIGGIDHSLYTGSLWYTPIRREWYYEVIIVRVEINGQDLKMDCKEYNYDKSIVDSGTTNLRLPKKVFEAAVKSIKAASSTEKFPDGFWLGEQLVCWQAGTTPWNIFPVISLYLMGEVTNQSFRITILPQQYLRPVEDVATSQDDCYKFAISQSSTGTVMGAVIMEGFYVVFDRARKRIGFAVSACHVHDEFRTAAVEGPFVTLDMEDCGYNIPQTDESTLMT

human BACE1 (rhBACE1) [6] = target: T1, human BACE1 (rhBACE1); assay: Caliper BACE1 activity assay (microfluidic capillary electrophoresis); assay type: biochemical; parameters: containing human BACE1 (extracellular domain); conditions: 12 nM rhBACE1, 1 μM FAM-substrate, pH 4.4
Procedure: An MCE assay reactions can be carried out in a standard enzymatic reaction, initiated by the addition of substrate to enzyme and 4× compound, containing human BACE1 (extracellular domain), amyloid precursor protein beta secretase active site peptide (FAM-[…]-CONH2 (SEQ ID NO: 20)), 50 mM NaOAc pH 4.4 and 0.1% CHAPS. After incubation for 60 minutes at ambient temperature, the product and substrate in each reaction is separated using a 12-sipper microfluidic chip analyzed on an LC3000® (both, Caliper Life Sciences). The separation of product and substrate is optimized by choosing voltages and pressure using the manufacturer's optimization software. Substrate conversion is calculated from the electrophoregram using HTS Well Analyzer software (Caliper Life Sciences).
BACE1, BACE2 and Cathepsin D Activity Assay Using Microfluidic Capillary Electrophoresis (MCE).
BACE1, BACE2, and Cathepsin D reactions were carried out in a final volume of 20 μl per well in a 384-well microplate using a Caliper LabChip 3000 (Hopkinton, Mass.). A standard enzymatic reaction, initiated by the addition of 10 μ12× substrate to 5 μl of 4× enzyme and 5 μl of 4× peptide or small molecule inhibitor, contained 12 nM rhBACE1, 1 μM FAM-[…]-amide (SEQ ID NO: 20), 50 mM NaOAc, pH 4.4, 0.1% CHAPS. The same reaction conditions were used for rhBACE2 (5 nM) and Cathepsin D (6 nM) (Cat. No. 219394; EMD Biosciences, San Diego, Calif.). After incubation for 60 min at room temperature, the product and substrate in each reaction were separated using a 12-sipper microfluidic chip. Separation of product and substrate was optimized by choosing voltages and pressure using the Caliper Optimizer software. The separation buffer contained 100 mM HEPES, pH 7.2, 0.015% Brij-35, 0.1% Coating Reagent #3, 10 mM EDTA and 5% DMSO. The separation conditions used a downstream voltage of −500 V, an upstream voltage of −2250 V, and a screening pressure of −1.2 psi. The product and substrate fluorescence was excited at 488 nm and detected at 530 nm. Substrate conversion was calculated from the electrophoregram using the Caliper HTS Well Analyzer software.
Target sequence in this assay (P56817 46-457 limits assumed): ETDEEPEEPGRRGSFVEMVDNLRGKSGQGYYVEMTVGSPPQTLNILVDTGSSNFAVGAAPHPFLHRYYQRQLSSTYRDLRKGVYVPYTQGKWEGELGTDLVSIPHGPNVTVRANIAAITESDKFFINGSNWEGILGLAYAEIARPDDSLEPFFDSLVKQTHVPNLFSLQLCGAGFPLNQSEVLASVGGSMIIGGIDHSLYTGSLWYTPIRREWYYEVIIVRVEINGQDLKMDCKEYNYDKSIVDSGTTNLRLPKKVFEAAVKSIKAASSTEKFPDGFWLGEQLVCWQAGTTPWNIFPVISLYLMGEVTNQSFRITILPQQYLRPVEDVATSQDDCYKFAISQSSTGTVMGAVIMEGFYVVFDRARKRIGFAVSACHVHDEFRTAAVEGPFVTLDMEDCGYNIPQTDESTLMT

IC50 (human BACE1 (rhBACE1) [2])	Effect on BACE1 activity in HTRF enzyme activity assay (in words) (human BACE1 (rhBACE1) [3])	Binding of phage-displayed peptide to BACE1 in competition with peptide BMS1 (BACE1 [4])	Competition for binding of biotinylated BACE020 to BACE1 (BACE1 [5])	IC50 (human BACE1 (rhBACE1) [6])	IC50 (human BACE1 (rhBACE1) [3])	Compound	Inhibition of Aβ production in cells (in words) [1]
						OM99-2 [reference compound]	not all enzymatic inhibitors showed cellular activity
> 10 µM	very weak inhibitor	competitive				Ac-SGPYFIEYMSAV-NH2 [BACE010]	
> 10 µM			no competition			Ac-NLTTYPYFIPLP-NH2 [BMS1, reference compound]	no inhibition
	activator	competitive				BACE011: Ac-SGCLDYPCFVPIS-NH2 (disulfide 3-8 (inferred))	
> 10 µM				> 10 µM	438 nM	CC[C@H](C)[C@H](NC(=O)[C@H](Cc1c[nH]cn1)NC(=O)[C@H](CCC(=O)O)NC(=O)[C@H](CCC(=O)O)NC(=O)[C@H](CC(N)=O)NC(C)=O)C(=O)N[C@@H](Cc1ccc(O)cc1)C(=O)N[C@H]1CSSC[C@@H](C(=O)NCC(N)=O)NC(=O)CNC(=O)[C@H](CC(C)C)NC(=O)CNC(=O)[C@H](CC(C)C)NC(=O)[C@H](CC(C)C)NC(=O)[C@H](CCCNC(=N)N)NC1=O [BACE017] (Ac-NEEHIYCRLLGLGCG-NH2; disulfide 7-14)	
0.01 ± 0.003 µM					10 nM	CSCC[C@@H]1NC(=O)[C@H](CC(C)C)NC(=O)[C@H](CCCNC(=N)N)NC(=O)[C@@H](NC(=O)[C@H](Cc2ccc(O)cc2)NC(=O)[C@@H]2CCCN2C(=O)[C@H](CO)NC(=O)[C@H](CC(C)C)NC(=O)[C@H](CCC(=O)O)NC(=O)[C@H](CC(N)=O)NC(C)=O)CSSC[C@@H](C(=O)N[C@@H](CC(=O)O)C(N)=O)NC(=O)CNC(=O)[C@H](CC(C)C)NC(=O)CNC1=O [BACE019] (Ac-NELSPYCRLMGLGCD-NH2; disulfide 7-14)	
> 10 µM				> 10 µM		Ac-NEESMYSRLLGIGSG-NH2 [BACE027]	no inhibition
0.011 ± 0.002 µM	best inhibitory activity			0.011 ± 0.003 µM	12 nM	CC[C@H](C)[C@@H]1NC(=O)CNC(=O)[C@H](CC(C)C)NC(=O)[C@H](CC(C)C)NC(=O)[C@H](CCCNC(=N)N)NC(=O)[C@@H](NC(=O)[C@H](Cc2ccc(O)cc2)NC(=O)[C@H](CCSC)NC(=O)[C@H](CO)NC(=O)[C@H](CCC(=O)O)NC(=O)[C@H](CCC(=O)O)NC(=O)[C@H](CC(N)=O)NC(C)=O)CSSC[C@@H](C(=O)NCC(N)=O)NC(=O)CNC1=O [BACE020] (Ac-NEESMYCRLLGIGCG-NH2; disulfide 7-14)	potent inhibitor
